Here are results for nine molecules from patent US9670247B2, “Contraceptive agents” (The University of Kansas, priority 2012, dated 2017).

hERG, sequence (Q12809 whole entry): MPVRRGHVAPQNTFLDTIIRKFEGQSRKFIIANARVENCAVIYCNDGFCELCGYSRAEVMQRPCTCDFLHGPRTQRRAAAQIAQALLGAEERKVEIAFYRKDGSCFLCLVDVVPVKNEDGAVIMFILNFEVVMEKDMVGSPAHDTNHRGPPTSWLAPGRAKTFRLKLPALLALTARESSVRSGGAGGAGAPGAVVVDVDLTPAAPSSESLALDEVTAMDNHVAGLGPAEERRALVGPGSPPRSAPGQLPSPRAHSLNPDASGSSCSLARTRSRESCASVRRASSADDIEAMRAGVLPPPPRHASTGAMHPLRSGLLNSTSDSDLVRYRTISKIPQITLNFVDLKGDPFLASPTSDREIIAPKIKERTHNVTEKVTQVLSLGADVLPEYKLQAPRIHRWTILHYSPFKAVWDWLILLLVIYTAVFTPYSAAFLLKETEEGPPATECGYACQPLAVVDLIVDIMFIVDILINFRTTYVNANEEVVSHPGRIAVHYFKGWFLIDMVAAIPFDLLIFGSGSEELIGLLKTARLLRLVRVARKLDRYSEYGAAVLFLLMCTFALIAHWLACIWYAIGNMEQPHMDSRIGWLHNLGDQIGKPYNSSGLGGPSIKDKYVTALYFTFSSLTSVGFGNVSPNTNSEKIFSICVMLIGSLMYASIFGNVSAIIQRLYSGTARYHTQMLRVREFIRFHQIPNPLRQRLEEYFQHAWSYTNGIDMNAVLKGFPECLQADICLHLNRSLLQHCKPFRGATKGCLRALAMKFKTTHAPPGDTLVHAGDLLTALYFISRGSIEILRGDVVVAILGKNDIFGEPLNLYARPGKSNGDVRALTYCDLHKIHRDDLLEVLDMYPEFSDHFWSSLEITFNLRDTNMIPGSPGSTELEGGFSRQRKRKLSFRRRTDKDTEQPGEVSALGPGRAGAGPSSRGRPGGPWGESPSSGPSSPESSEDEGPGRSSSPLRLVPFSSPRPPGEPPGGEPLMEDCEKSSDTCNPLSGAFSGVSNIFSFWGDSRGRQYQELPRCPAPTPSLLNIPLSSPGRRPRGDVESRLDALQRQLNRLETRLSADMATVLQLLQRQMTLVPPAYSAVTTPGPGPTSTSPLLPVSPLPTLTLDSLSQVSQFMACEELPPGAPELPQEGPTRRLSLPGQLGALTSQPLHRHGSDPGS

System in one data set: not given
Conditions: not given
For the molecule `COCO[C@@H]1[C@H]2OC(C)(C)O[C@H]2[C@H](O[C@H]2C[C@H]3OC(C)(C)OC[C@]34C3C(CC[C@]4(O)C2)[C@@]2(O)CC[C@H](C#N)[C@@]2(C)C[C@H]3OCOC)O[C@H]1C` (stereo partly drawn) [Compound 11, (3S,3aR,5R,5bR,9aR,11S,12aS,14bS)-12a,14b-dihydroxy-5-(methoxymethoxy)-11-(((3aR,4R,6S,7S,7aR)-7-(methoxymethoxy)-2,2,6-trimethyltetrahydro-3aH-[1,3]dioxolo[4,5-c]pyran-4-yl)oxy)-3a,8,8-trimethylhexadecahydro-1H-cyclopenta[7,8]phenanthro[4,4a-d][1,3]dioxine-3-carbonitrile], the melting point lay in the range of 97 to 99 °C.

`CC(C)[C@H](N)C(=O)O[C@H]1CC[C@@]2(C)C(=CCC3C2CC[C@@]2(C)C3CC[C@@H]2c2cn(Cc3ccccc3)nn2)C1` (stereo partly shown) displayed a melting point of 195 to 197 °C.

`COCO[C@H]1C[C@H]2OC(C)(C)OC[C@]23C2C(CC[C@]3(O)C1)[C@@]1(OCOC)CC[C@H](C=O)[C@@]1(C)C[C@H]2OCOC` (stereo partly shown) had a melting point of 129 to 135 °C.

The molecule `COC(=O)Cn1cc([C@H]2CCC3C4CC=C5C[C@@H](O)CC[C@]5(C)C4CC[C@@]32C)nn1` (stereo partly shown) showed a melting point of 221 to 223 °C.

Molecule `COCO[C@@H]1[C@H]2OC(C)(C)O[C@H]2[C@H](O[C@H]2C[C@H]3OC(C)(C)OC[C@]34C3C(CC[C@]4(O)C2)[C@@]2(O)CC[C@H](CO)[C@@]2(C)C[C@H]3OCOC)O[C@H]1C` (stereo partly drawn) [Compound 10, (3S,3aR,5R,5bR,9aR,11S,12aS,14bS)-3-(hydroxymethyl)-5-(methoxymethoxy)-11-(((3aR,4R,6S,7S,7aR)-7-(methoxymethoxy)-2,2,6-trimethyltetrahydro-3aH-[1,3]dioxolo[4,5-c]pyran-4-yl)oxy)-3a,8,8-trimethylhexadecahydro-1H-cyclopenta[7,8]phenanthro[4,4a-d][1,3]dioxine-12a,14b-diol] came in with a melting point of 126 to 129 °C.

Consider `C[C@]12CCC3C(CC=C4C[C@@H](O)CC[C@@]43C)[C@@H]1CC[C@@H]2C1=CC(=O)OC1` (stereo in doubt), for which the melting point lay in the range of 286 to 287 °C.

The molecule `COCO[C@H]1C[C@H]2OC(C)(C)OC[C@]23C2C(CC[C@]3(O)C1)[C@@]1(OCOC)CC[C@H](CO)[C@@]1(C)C[C@H]2OCOC` (stereo partly drawn) [Compound 22, (3S,3aR,5R,5bR,9aR,11S,12aS,14bS)-3-(hydroxymethyl)-5,11,14b-tris(methoxymethoxy)-3a,8,8-trimethylhexadecahydro-1H-cyclopenta[7,8]phenanthro[4,4a-d][1,3]dioxin-12a-ol] had a melting point of 154 to 158 °C.

On to `COCO[C@@H]1[C@H]2OC(C)(C)O[C@H]2[C@H](O[C@H]2C[C@H]3OC(C)(C)OC[C@]34C3C(CC[C@]4(O)C2)[C@@]2(O)CC[C@H](C(O)CO)[C@@]2(C)C[C@H]3OCOC)O[C@H]1C` (stereo partly drawn) [Compound 3, (3S,3aR,5R,5bR,9aR,11S,12aS,14bS)-3-(1,2-dihydroxyethyl)-5-(methoxymethoxy)-11-(((3aR,4R,6S,7S,7aR)-7-(methoxymethoxy)-2,2,6-trimethyltetrahydro-3aH-[1,3]dioxolo[4,5-c]pyran-4-yl)oxy)-3a,8,8-trimethylhexadecahydro-1H-cyclopenta[7,8]phenanthro[4,4a-d][1,3]dioxine-12a,14b-diol], for which the melting point lay in the range of 119 to 121 °C.

Another data set deals with Na,K-ATPase α4 isoform. The following applies: higher than that of the ubiquitous α1 isoform; cited from earlier work.
As to `C[C@@H]1O[C@@H](O[C@H]2C[C@@H](O)[C@]3(CO)[C@H]4[C@H](O)C[C@]5(C)[C@@H](C6=CC(=O)OC6)CC[C@]5(O)[C@@H]4CC[C@]3(O)C2)[C@H](O)[C@H](O)[C@H]1O` [ouabain], the “affinity for ouabain of α4 relative to the α1 isoform” value is on record as 10,000 fold.

The next data set addresses hERG (Homo sapiens, UniProt Q12809).
Conditions: not given
As for `C[C@@H]1O[C@@H](O[C@H]2C[C@@H](O)[C@]3(CO)[C@H]4[C@H](O)C[C@]5(C)[C@@H](C6=CC(=O)OC6)CC[C@]5(O)[C@@H]4CC[C@]3(O)C2)[C@H](O)[C@H](O)[C@H]1O` [ouabain], the “effect on hERG” value was “inhibited hERG activity”.
